From US6251899A, “Methoximinomethyloxadiazines” (Bayer Aktiengesellschaft, priority 1997, dated 2001)
Like-named read-outs stand apart in the source and are kept apart here.

Assays:
[1] = logP by HPLC (EEC Directive 79/831 Annex V. A8, gradient method, acetonitrile/0.1% aqueous phosphoric acid); assay type: physicochemical
Description: *The logP values were determined in accordance with EEC Directive 79/831
Annex V. A8 by HPLC (gradient method, acetonitrile/0.1% aqueous phosphoric

[2] = test system: Plasmopara viticola; assay: Plasmopara test (grapevine)/protective; details: 144 h
[3] = test system: Venturia inaequalis; assay: Venturia test (apple)/protective; details: 288 h
[4] = read-out: Efficacy, grapevine, protective, 100 g/ha, 6 days after inoculation
[5] = read-out: Efficacy, apple, protective, 10 g/ha, 12 days after inoculation

chromatographic logP [1] | SMILES | pest or weed control at 100 g/ha [2, 4] [%] | pest or weed control at 10 g/ha [3, 5] [%] | other results
3.45 | CON=C(C1=NOCCN1)c1ccccc1Oc1ncnc(Oc2cccc(Cl)c2Cl)c1F [Example 1, 3-{1-[2-(4-<2,3-dichlorophenoxy>-5-fluoropyrimid-6-yloxy)-phenyl]-1-(methoximino)-methyl}-5,6-dihydro-4H-1,2,4-oxadiazine] | ≥ 90 |  | 
3.52 | CON=C(C1=NOCCN1)c1ccccc1Oc1ncnc(Oc2cccc(Cl)c2C)c1F [Example 2] | ≥ 90 | ≥ 90 | 
3.38 | C=Cc1ccccc1Oc1ncnc(Oc2ccccc2C(=NOC)C2=NOCCN2)c1F [Example 7] | ≥ 90 | ≥ 90 | 
3.01 | CON=C(C1=NOCCN1)c1ccccc1Oc1ncnc(Oc2ccccc2C)c1F [Example 8] |  |  | 
3.08 | CON=C(C1=NOCCN1)c1ccccc1Oc1ncnc(Oc2ccccc2Br)c1F [Example 9] | ≥ 90 |  | 
2.85 | CON=C(C1=NOCCN1)c1ccccc1Oc1ncnc(Oc2ccccc2F)c1F [Example 10] | ≥ 90 | ≥ 90 | 
3.32 | CCc1ccccc1Oc1ncnc(Oc2ccccc2C(=NOC)C2=NOCCN2)c1F [Example 11] | ≥ 90 | ≥ 90 | 
3.96 | CON=C(C1=NOCCN1)c1ccccc1Oc1ncnc(Oc2cccc(C(C)(C)C)c2)c1F [Example 12] |  | ≥ 90 | 
3.59 | CON=C(C1=NOCCN1)c1ccccc1Oc1ncnc(Oc2ccccc2C(C)C)c1F [Example 13] | ≥ 90 | ≥ 90 | 
2.7 | CON=C(C1=NOCCN1)c1ccccc1Oc1ncnc(Oc2ccccc2OC)c1F [Example 14] | ≥ 90 |  | 
3.38 | CON=C(C1=NOCCN1)c1ccccc1Oc1ncnc(Oc2ccc(C)cc2C)c1F [Example 15] | ≥ 90 |  | 
3.35 | CON=C(C1=NOCCN1)c1ccccc1Oc1ncnc(Oc2cc(C)ccc2C)c1F [Example 16] |  |  | 
4.01 | CON=C(C1=NOCCN1)c1ccccc1Oc1ncnc(Oc2ccccc2C2CCCC2)c1F [Example 17] | ≥ 90 | ≥ 90 | 
3.35 | CON=C(C1=NOCCN1)c1ccccc1Oc1ncnc(Oc2cc(C)ccc2Cl)c1F [Example 18] |  |  | 
3.29 | CON=C(C1=NOCCN1)c1ccccc1Oc1ncnc(Oc2c(C)cccc2C)c1F [Example 19] | ≥ 90 |  | 
3.1 | CON=C(C1=NOCCN1)c1ccccc1Oc1ncnc(Oc2cccc(C)c2)c1F [Example 20] | ≥ 90 | ≥ 90 | 
3.08 | CON=C(C1=NOCCN1)c1ccccc1Oc1ncnc(Oc2ccc(C)cc2)c1F [Example 21] |  | ≥ 90 | 
3.84 | CON=C(C1=NOCCN1)c1ccccc1Oc1ncnc(Oc2ccccc2C(C)(C)C)c1F [Example 22] |  | ≥ 90 | 
2.8 | CON=C(C1=NOCCN1)c1ccccc1Oc1ncnc(Oc2cccc(OC)c2)c1F [Example 23] |  | ≥ 90 | 
3.39 | CON=C(C1=NOCCN1)c1ccccc1Oc1ncnc(Oc2cccc(C(F)(F)F)c2)c1F [Example 24] |  | ≥ 90 | 
3.54 | CON=C(C1=NOCCN1)c1ccccc1Oc1ncnc(Oc2ccc(OC(F)(F)F)cc2)c1F [Example 25] |  |  | 
3.76 | CON=C(C1=NOCCN1)c1ccccc1Oc1ncnc(Oc2ccc(C(F)(F)F)cc2Cl)c1F [Example 26] |  |  | 
3.86 | CON=C(C1=NOCCN1)c1ccccc1Oc1ncnc(Oc2ccc(OC(F)(F)F)cc2Cl)c1F [Example 27] |  |  | 
2.56 | CON=C(C1=NOCCN1)c1ccccc1Oc1ncnc(Oc2ccccc2C#N)c1F [Example 29] |  |  | 
3.8 | CON=C(C1=NOCCN1)c1ccccc1Oc1ncnc(Oc2ccc(OC(F)(F)F)cc2C)c1F [Example 30] |  |  | 
3.3 | CON=C(C1=NOCCN1)c1ccccc1Oc1ncnc(Oc2cccc3c2OC(C)(C)C3)c1F [Example 31] |  | ≥ 90 | 
3.84 | CON=C(C1=NOCCN1)c1ccccc1Oc1ncnc(Oc2ccc(SC(F)(F)F)cc2)c1F [Example 32] |  |  | 
3.56 | CON=C(C1=NOCCN1)c1ccccc1Oc1ncnc(Oc2ccc(OC(F)(F)C(F)Cl)cc2)c1F (stereo not shown) [Example 33] |  |  | 

chromatographic logP [1] | SMILES | pest or weed control at 100 g/ha [2, 4] [%] | pest or weed control at 10 g/ha [3, 5] [%] | other results
2.76 | CON=C(C1=NOCCN1)c1ccccc1Oc1ncnc(Oc2ccccc2)c1F [Example 34] | ≥ 90 |  | 
1.58 | CON=C(C1=NOCCN1)c1ccccc1Oc1ncnc(Oc2ccc(C)nc2)c1F [Example 35] |  |  | 
2.43 | CON=C(C1=NOCCN1)c1ccccc1Oc1ncnc(Oc2cccnc2Br)c1F [Example 36] |  | ≥ 90 | 
1.73 | CON=C(C1=NOCCN1)c1ccccc1Oc1ncnc(Oc2cccnc2)c1F [Example 37] |  |  | 
2.62 | CON=C(C1=NOCCN1)c1ccccc1Oc1ncnc(Oc2cccc(Cl)n2)c1F [Example 40] |  | ≥ 90 | 
2.65 | CON=C(C1=NOCCN1)c1ccccc1Oc1ncnc(Oc2ccc(Cl)cn2)c1F [Example 41] |  |  | 
3.56 | CON=C(C)c1ccc(Oc2ncnc(Oc3ccccc3C(=NOC)C3=NOCCN3)c2F)c(C)c1 [Example 42] |  |  | 
2.8 | CON=C(C1=NOCCN1)c1ccccc1Oc1ncnc(OCc2ccccc2Cl)c1F [Example 45] |  |  | 
3.44 | CON=C(C1=NOCCN1)c1ccccc1Oc1ncnc(OCc2cccc(Cl)c2)c1F [Example 46] |  |  | 
 | CON=C(C1=NOCCN1)c1ccccc1Oc1ncnc(Sc2ccccc2)c1F [Example 48] | ≥ 90 | ≥ 90 | 
3.69 | CON=C(C1=NOCCN1)c1ccccc1Oc1ncnc(Sc2ccc(Br)cc2)c1F [Example 49] |  |  | 
3.57 | CON=C(C1=NOCCN1)c1ccccc1Oc1ncnc(Sc2ccc(Cl)cc2)c1F [Example 50] | ≥ 90 |  | 
3.45 | CON=C(C1=NOCCN1)c1ccccc1Oc1ncnc(Sc2ccc(C)cc2)c1F [Example 51] | ≥ 90 |  | 
3.66 | CON=C(C1=NOCCN1)c1ccccc1Oc1ncnc(Sc2cccc(Br)c2)c1F [Example 52] |  |  | 
3.56 | CON=C(C1=NOCCN1)c1ccccc1Oc1ncnc(Sc2cccc(Cl)c2)c1F [Example 53] | ≥ 90 |  | 
4.3 | CON=C(C1=NOCCN1)c1ccccc1Oc1ncnc(Sc2ccc(Cl)c(C(F)(F)F)c2Cl)c1F [Example 55] |  |  | 
4.01 | CON=C(C1=NOCCN1)c1ccccc1Oc1ncnc(SC2CCCCC2)c1F [Example 57] |  |  | 
3.42 | CON=C(C1=NOCCN1)c1ccccc1Oc1ncnc(SCc2ccccc2)c1F [Example 58] |  |  | 
3.34 | CON=C(C1=NOCCN1)c1ccccc1Oc1ncnc(Oc2cccc(C)c2Cl)c1F [Example 59] | ≥ 90 | ≥ 90 | 
3.4 | CCSCc1ccccc1Oc1ncnc(Oc2ccccc2C(=NOC)C2=NOCCN2)c1F [Example 60] |  |  | 
2.74 | COCc1ccccc1Oc1ncnc(Oc2ccccc2C(=NOC)C2=NOCCN2)c1F [Example 61] |  |  | 
3.04 | CCOCc1ccccc1Oc1ncnc(Oc2ccccc2C(=NOC)C2=NOCCN2)c1F [Example 62] |  |  | 
2.95 | CON=C(C1=NOCCN1)c1ccccc1Oc1ncnc(Oc2ccccc2SC)c1F [Example 63] |  |  | 
3.26 | CCSc1ccccc1Oc1ncnc(Oc2ccccc2C(=NOC)C2=NOCCN2)c1F [Example 64] |  |  | 
1.97 | CON=C(C1=NOCCN1)c1ccccc1Oc1ncnc(F)c1F [IV-1, 3-{1-[2-(4,5-difluoropyrimid-6-yloxy)-phenyl]-1-(methoximino)-methyl}-5,6-dihydro-4H-1,2,4-oxadiazine] |  |  | 
2.39 | CON=C1C(=NOCCOS(C)(=O)=O)Oc2ccccc21 [VI-1, benzofuran-2,3-dione 2-[O-(2-methylsulphonyloxy-ethyl)-oxime]3-(O-methyl-oxime)] |  |  | 
1.65 | CON=C1C(=NOCCO)Oc2ccccc21 [benzofuran-2,3-dione 2-[O-(2-hydroxy-ethyl)-oxime] 3-(O-methyl-oxime)] |  |  | logP [1]: 1.79

SMILES | chromatographic logP [1] | pest or weed control at 100 g/ha [2, 4] [%] | pest or weed control at 10 g/ha [3, 5] [%] | other results
CON=C(C1=NOCCN1)c1ccccc1Oc1ncnc(Oc2ccccc2Cl)c1F [Example 3] | 3.02 | ≥ 90 | ≥ 90 | pest or weed control at 10 g/ha ([3]; read-out: Efficacy): 92%
CON=C(C1=NOCCN1)c1ccccc1Oc1ncnc(Oc2cccc(C)c2C)c1F [Example 4] | 3.29 | ≥ 90 | ≥ 90 | pest or weed control at 10 g/ha ([3]; read-out: Efficacy): 95%
CON=C(C1=NOCCN1)c1ccccc1Oc1ncnc(Oc2cccc(Cl)c2)c1F [Example 5] | 3.23 | ≥ 90 | ≥ 90 | pest or weed control at 10 g/ha ([3]; read-out: Efficacy): 99%; pest or weed control at 100 g/ha ([2]; read-out: Efficacy): 97%
CON=C(C1=NOCCN1)c1ccccc1Oc1ncnc(Oc2ccc(Cl)cc2)c1F [Example 6] | 3.23 | ≥ 90 |  | pest or weed control at 100 g/ha ([2]; read-out: Efficacy): 97%
